Like-named read-outs stand apart in the source and are kept apart here.
Legend:
[1] = test system: EMT-6 mouse mammary tumor cells; assay: In vitro cytotoxicity screen (colony formation); type: cell-based; settings: 1 hour drug exposure at 37° C., EMT-6 colony formation
Method: Cell Line and Culture. The cell line used in the screen was EMT-6 mouse mammary tumor cells in culture that were maintained in exponential growth in Waymouth's medium (I.S.I. Corp., Chicago, Ill.), supplemented with 15% newborn calf serum, penicillin (100 units/ml), and streptomycin (100 μg/ml) (Grand Island Biological Co., Grand Island, N.Y.). The doubling time of these cultures, growing at 37° C. in a 5% CO2 /95% air atmosphere, was 16-19 hours. In vitro plating efficiencies of control cultures were 65-80%.
Production of Hypoxia. To produce hypoxia, plastic flasks, containing exponentially growing monolayers of tumor cells in complete medium plus serum, were fitted with sterile rubber septums and exposed to a continuously flowing 95% N2 /5% CO2 humidified atmosphere for 4 hours at 37° C. as described by B. A. Teicher et al., Int. J. Radiat. Oncol. Biol. Phy., 11:937-940 (1985); and B. A. Teicher et al., Cancer Res., 41:73-81 (1981). Parallel flasks were maintained in 95% air/5% CO2. At the end of 4 hours, the drug specified in Table I below was added to the flasks by injection through the rubber septum without disturbing the hypoxia. […]
Drug Treatments. Exponentially growing cells were exposed to varying concentrations of the drugs specified in Table I below for 1 hour at 37° C. Non-drug-treated controls were handled identically. Drugs were prepared in sterile phosphate-buffered saline immediately before use and added to the cells in a small volume (50-100 μl). […] After treatment, the medium was removed, and the cultures were washed twice with phosphate buffered saline and suspended by trypsinization.
Cell Viability Measurements. Cell viability was measured by the ability of single cells to form colonies in vitro, as described by B. A. Teicher et al., Int. J. Radiat. Oncol. Biol. Phys., 11:937-940 (1985); and B. A. Teicher et al., Cancer Res., 41:73-81 (1981). Following treatment, suspensions of known cell numbers were plated in plastic Petri dishes and allowed to grow in a 37° C. incubator under standard culture conditions for 8-10 days. After this time interval, macroscopic colonies were stained with crystal violet in methanol containing 3.7% formaldehyde and were counted manually. Each experiment was repeated 3 times and each data point per experiment represents the results of 3 different dilutions of cells plated in triplicate.

[2] = test system: L1210 leukemia; assay: In vivo antitumor test, L1210 leukemia implanted i.p. in DBA mice; settings: for SURVIVAL: lifespan post tumor cell inoculation; for % ILS: vs untreated controls
Method: L1210 leukemia (10^6) cells were implanted intraperitoneally in DBA mice (Taconic Farms, Germantown, N.Y.) on day 0. Treatment with each drug was carried out daily for 5 days. The drugs were administered intraperitoneally at the doses shown on Table II below. Each treatment group had six animals and the experiment was carried out twice. The percent increase-in-lifespan (% ILS) is for the treated subjects compared with the untreated controls.
^a Drugs were administered i.p. daily on days 1-5.
^b Lifespan of the animals post tumor cell innoculation.

[3] = Mus musculus, EMT6, 1 h, Hypoxia, read-out: IC50
[4] = Mus musculus, EMT6, 1 h, Normal oxygenation, read-out: IC50
[5] = Mus musculus, EMT6, Normal oxygenation, read-out: IC90
[6] = Mus musculus, EMT6, 1 h, Hypoxia
[7] = Mus musculus, EMT6, 1 h, Normal oxygenation
[8] = 1.00 mg/kg i.p. daily on days 1-5
[9] = 2.50 mg/kg i.p. daily on days 1-5
[10] = 5.00 mg/kg i.p. daily on days 1-5
[11] = 10.00 mg/kg i.p. daily on days 1-5
[12] = 0.50 mg/kg i.p. daily on days 1-5
[13] = 1.25 mg/kg i.p. daily on days 1-5
[14] = 1.50 mg/kg i.p. daily on days 1-5
[15] = 2.00 mg/kg i.p. daily on days 1-5

| Structure (SMILES) | IC90 ([1]; Hypoxia, read-out: IC90) [µM] | IC50 [1, 3] [µM] | IC50 [1, 4] [µM] | IC90 [1, 5] [µM] | SURVIVAL [2, 8] [days] | % ILS [2, 8] [%] | SURVIVAL [2, 9] [days] | % ILS [2, 9] | SURVIVAL [2, 10] [days] | % ILS [2, 10] [%] | SURVIVAL [2, 11] [days] | % ILS [2, 11] | also measured |
| --- | --- | --- | --- | --- | --- | --- | --- | --- | --- | --- | --- | --- | --- |
| COC1=CC(=O)C(=O)C=C1OC [4,5-Methoxy-1,2-Benzoquinone, 4,5-Dimethoxy-1,2-benzoquinone, reference compound] | > 500 | > 500 | 500 | > 500 | – | – | – | – | – | – | – | – | – |
| COC1=CC(=O)C(=O)C=C1NCCCl [4-chloroethylamino-5-methoxy-1,2-benzoquinone] | – | – | – | – | – | – | – | – | – | – | – | – | IC50 [1, 6]: 110 µM; IC90 [1, 6]: 190 µM; IC50 [1, 7]: 125 µM; IC90 [1, 7]: 455 µM |
| O=C1C=C(N2CCC2)C(N2CCC2)=CC1=O [4,5-Azetidinyl-1,2-Benzoquinone, 4,5-azetidinyl-1,2-benzoquinone] | > 500 | 400 | 500 | > 500 | 8.0 | 8 | 7.8 | 5% | 7.8 | 5 | 6.4 | toxic | – |
| CCN(CC)C1=CC(=O)C(=O)C=C1N(CC)CC [4,5-bis-(Diethylamino)-1,2-Benzoquinone, 4,5-bis-(diethylamino)-1,2-benzoquinone] | > 500 | 400 | 500 | > 500 | 7.8 | 5 | 8.4 | 14% | 8.6 | 16 | 7.8 | 5% | – |
| O=C1C=C(N2CC2)C(N2CC2)=CC1=O [4,5-Aziridinyl-1,2-Benzoquinone, 4,5-aziridinyl-1,2-benzoquinone] | – | – | – | – | 13.4 | 81 | 6.0 | toxic | – | – | – | – | IC50 [1, 6]: 0.2 µM; IC90 [1, 6]: 1 µM; IC50 [1, 7]: 0.4 µM; IC90 [1, 7]: 1.1 µM; SURVIVAL [2, 12]: 12.6 days; % ILS [2, 12]: 70%; SURVIVAL [2, 13]: 13.6 days; % ILS [2, 13]: 84%; SURVIVAL [2, 14]: 13.8 days; % ILS [2, 14]: 86%; SURVIVAL [2, 15]: 11.8 days; % ILS [2, 15]: 59% |
| O=C1C=C(N2CCCC2)C(N2CCCC2)=CC1=O [4,5-Pyrrolidinyl-1,2-Benzoquinone, 4,5-pyrrolidinyl-1,2-benzoquinone] | > 500 | > 500 | > 500 | > 500 | 8.0 | 8 | 8.0 | 8% | 7.6 | 3 | 6.3 | toxic | – |
| CCOC(=O)NC1=C(N2CC2)C(=O)C(NC(=O)OCC)=C(N2CC2)C1=O [AZQ, 3,6-bis(ethylcarboxyamino)-2,5-diaziridinyl-1,4-benzoquinone, reference compound] | – | 7.5 | 5 | – | – | – | – | – | – | – | – | – | IC90 ([1]; Mus musculus, EMT6, 1 h, Hypoxia, read-out: IC90): 17.5 µM; IC90 ([1]; Mus musculus, EMT6, 1 h, Normal oxygenation, read-out: IC90): 15.5 µM |

Source: patent US5502214A, “1,2-benzoquinones and methods for making and using same” (priority 1993, dated 1996)
